Experimental data reported in paper PMC7248394 (Frontiers in Chemistry, 2020).
“Also recorded” adds a separate entry of the source. Residues, ends and D or L forms follow the SMILES beside them. *: point of attachment. 5FAM = O=C1OC2(c3ccc(O)cc3Oc3cc(O)ccc32)c2ccc(C(=O)*)cc21

Legend:
trypsin = assay: 7 μL of 8 μM trypsin added to peptide in 360 μL of HEPES 20 mM pH = 7.5; conditions: 37 °C, up to about 30 h
[1] = target: T1, IN1−288 F185K/C250S (HIV-1 integrase) (Human immunodeficiency virus type 1 group M subtype B, UniProt P12497, C1427S/F1332K); assay: Fluorescence anisotropy binding of fluorescein-labeled IN181−188 peptides to IN; conditions: for Hill coefficient (n): fluorescence anisotropy, IN titrated into 100 nM fluorescein-labeled peptide, 10°C, ionic strength 1 M (NaCl), fit to Hill equation
T1 construct: we first expressed and purified IN1−288 F185K/C250S as previously described; made in house
Method: To test the activity of the cyclic peptide-peptoid hybrids, we first expressed and purified IN1−288 F185K/C250S as previously described (Gabizon et al., [2013]). The double mutant protein was used since it has similar activity as the wild-type but higher solubility (Jenkins et al., [1996]). […] The Hill coefficient for all the cyclic peptides was approximately 4, indicating cooperative binding of the peptides to tetrameric IN.
IN was titrated into a solution of 100 nM fluorescein labeled (Fl) IN181−188 cyclic peptides and into linear IN181−188, which served as a control. Anisotropy measurements were performed generally as described (Friedler et al., [2002]) at 10°C with ionic strength of 1 M (adjusted by NaCl) and the binding curves were fit to the Hill equation (Figure 8, Table 1).

| Molecule | fragment found (trypsin) | Kd [1] [µM] | Hill coefficient (n) [1] |
| --- | --- | --- | --- |
| H2N-W-G(N-alkyl)-F-I-H-N-F-K-R-K-G(N-alkyl)-NH2, the two N-alkyl groups joined by a triazole bridge (n=3, R=H) | digested C-2 (C-2 + 18 Da, addition of water) |  |  |
| CC[C@H](C)[C@@H]1NC(=O)[C@H](Cc2ccccc2)NC(=O)CN(C(=O)[C@H](Cc2c[nH]c3ccccc23)NC(=O)c2ccc3c(c2)C(=O)OC32c3ccc(O)cc3Oc3cc(O)ccc32)Cc2cn(nn2)CCN(CC(N)=O)C(=O)[C@H](CCCCN)NC(=O)[C@H](CCCNC(=N)N)NC(=O)[C@H](CCCCN)NC(=O)[C@H](Cc2ccccc2)NC(=O)[C@H](CC(N)=O)NC(=O)[C@H](Cc2c[nH]cn2)NC1=O [Fl-C-4] |  | 7 ± 0.2 | 2.5 ± 0.2 |
| CC[C@H](C)[C@@H]1NC(=O)[C@H](Cc2ccccc2)NC(=O)CN(C(=O)[C@H](Cc2c[nH]c3ccccc23)NC(=O)c2ccc3c(c2)C(=O)OC32c3ccc(O)cc3Oc3cc(O)ccc32)Cc2cn(nn2)CCCN(CC(N)=O)C(=O)[C@H](CCCCN)NC(=O)[C@H](CCCNC(=N)N)NC(=O)[C@H](CCCCN)NC(=O)[C@H](Cc2ccccc2)NC(=O)[C@H](CC(N)=O)NC(=O)[C@H](Cc2c[nH]cn2)NC1=O [Fl-C-2] |  | 9 ± 0.2 | 3.8 ± 0.3 |
| H2N-W-G(N-propargyl)-F-I-H-N-F-K-R-K-G(N-(CH2)3-N3)-NH2 | G(N-propargyl)FIHNFKR, major; also recorded: G(N-propargyl)FIHNFK |  |  |
| CC[C@H](C)[C@@H]1NC(=O)[C@H](Cc2ccccc2)NC(=O)CN(C(=O)[C@H](Cc2c[nH]c3ccccc23)NC(=O)c2ccc3c(c2)C(=O)OC32c3ccc(O)cc3Oc3cc(O)ccc32)CCn2cc(nn2)CN(CC(N)=O)C(=O)[C@H](CCCCN)NC(=O)[C@H](CCCNC(=N)N)NC(=O)[C@H](CCCCN)NC(=O)[C@H](Cc2ccccc2)NC(=O)[C@H](CC(N)=O)NC(=O)[C@H](Cc2c[nH]cn2)NC1=O [Fl-C-3] |  | 7.7 ± 0.5 | 2.8 ± 0.5 |
| CC[C@H](C)[C@@H]1NC(=O)[C@H](Cc2ccccc2)NC(=O)CN(C(=O)[C@H](Cc2c[nH]c3ccccc23)NC(=O)c2ccc3c(c2)C(=O)OC32c3ccc(O)cc3Oc3cc(O)ccc32)CCCn2cc(nn2)CN(CC(N)=O)C(=O)[C@H](CCCCN)NC(=O)[C@H](CCCNC(=N)N)NC(=O)[C@H](CCCCN)NC(=O)[C@H](Cc2ccccc2)NC(=O)[C@H](CC(N)=O)NC(=O)[C@H](Cc2c[nH]cn2)NC1=O [Fl-C-1] |  | 8.1 ± 0.2 | 3.8 ± 0.4 |
| CC[C@H](C)[C@H](NC(=O)[C@H](Cc1ccccc1)NC(=O)CNC(=O)[C@H](Cc1c[nH]c2ccccc12)NC(=O)c1ccc2c(c1)C(=O)OC21c2ccc(O)cc2Oc2cc(O)ccc21)C(=O)N[C@@H](Cc1c[nH]cn1)C(=O)N[C@@H](CC(N)=O)C(=O)N[C@@H](Cc1ccccc1)C(=O)N[C@@H](CCCCN)C(=O)N[C@@H](CCCNC(=N)N)C(=O)N[C@@H](CCCCN)C(=O)NCC(N)=O [Fl-WT IN181−188, reference compound] (5FAM-WGFIHNFKRKG-NH2; N-terminus assumed) |  | 7.6 ± 0.2 | 3.6 ± 0.4 |
